A short description of test [1]: cells. Type of test: functional, cell-based.
The target of test [2] is T1, Trace amine-associated receptor 1 (Homo sapiens, UniProt Q96RJ0).
T1 sequence (Q96RJ0 whole entry): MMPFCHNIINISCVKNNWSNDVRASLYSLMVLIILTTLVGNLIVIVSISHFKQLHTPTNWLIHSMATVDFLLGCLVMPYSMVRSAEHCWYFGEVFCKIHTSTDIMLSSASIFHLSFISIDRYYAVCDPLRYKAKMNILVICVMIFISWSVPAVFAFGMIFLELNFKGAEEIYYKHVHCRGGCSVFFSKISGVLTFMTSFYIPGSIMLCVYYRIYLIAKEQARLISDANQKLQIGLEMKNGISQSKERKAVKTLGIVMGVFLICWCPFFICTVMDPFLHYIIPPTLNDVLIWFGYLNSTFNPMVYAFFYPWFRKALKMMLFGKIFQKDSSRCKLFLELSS
The test can be described thus: Counterscreen for agonists of the human trace amine associated receptor 1 (hTAAR1): Fluorescence-based cell-based high throughput dose response assay to identify hTAAR1 agonist that also desensitize TAAR1 receptor response. Type of test: functional.

Test [3] is described as follows: cells. In kind it is functional, cell-based. This is another data set of the same source.
In test [4] the target is T1, Trace amine-associated receptor 1. The test can be described thus: Fluorescence-based cell-based high throughput dose response assay to identify agonists of the human trace amine associated receptor 1 (TAAR1). Type of test: functional.
Test [5] has as its target T2, Sentrin-specific protease 8 (Homo sapiens, UniProt Q96LD8).
T2 sequence (Q96LD8 whole entry): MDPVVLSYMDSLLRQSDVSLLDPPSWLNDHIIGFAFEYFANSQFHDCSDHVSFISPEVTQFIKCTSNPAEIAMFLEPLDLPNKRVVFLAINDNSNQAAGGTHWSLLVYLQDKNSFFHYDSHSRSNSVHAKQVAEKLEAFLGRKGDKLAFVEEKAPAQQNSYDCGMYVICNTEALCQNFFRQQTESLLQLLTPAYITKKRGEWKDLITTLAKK
The test can be described thus: SENP8 protease inhibitors, SAR follow-up, biochemical, luminescence (AID 504501). In kind it is functional.

Test [6] has as its target T3, Sentrin-specific protease 7 (Homo sapiens, UniProt Q9BQF6).
T3 sequence (Q9BQF6 whole entry): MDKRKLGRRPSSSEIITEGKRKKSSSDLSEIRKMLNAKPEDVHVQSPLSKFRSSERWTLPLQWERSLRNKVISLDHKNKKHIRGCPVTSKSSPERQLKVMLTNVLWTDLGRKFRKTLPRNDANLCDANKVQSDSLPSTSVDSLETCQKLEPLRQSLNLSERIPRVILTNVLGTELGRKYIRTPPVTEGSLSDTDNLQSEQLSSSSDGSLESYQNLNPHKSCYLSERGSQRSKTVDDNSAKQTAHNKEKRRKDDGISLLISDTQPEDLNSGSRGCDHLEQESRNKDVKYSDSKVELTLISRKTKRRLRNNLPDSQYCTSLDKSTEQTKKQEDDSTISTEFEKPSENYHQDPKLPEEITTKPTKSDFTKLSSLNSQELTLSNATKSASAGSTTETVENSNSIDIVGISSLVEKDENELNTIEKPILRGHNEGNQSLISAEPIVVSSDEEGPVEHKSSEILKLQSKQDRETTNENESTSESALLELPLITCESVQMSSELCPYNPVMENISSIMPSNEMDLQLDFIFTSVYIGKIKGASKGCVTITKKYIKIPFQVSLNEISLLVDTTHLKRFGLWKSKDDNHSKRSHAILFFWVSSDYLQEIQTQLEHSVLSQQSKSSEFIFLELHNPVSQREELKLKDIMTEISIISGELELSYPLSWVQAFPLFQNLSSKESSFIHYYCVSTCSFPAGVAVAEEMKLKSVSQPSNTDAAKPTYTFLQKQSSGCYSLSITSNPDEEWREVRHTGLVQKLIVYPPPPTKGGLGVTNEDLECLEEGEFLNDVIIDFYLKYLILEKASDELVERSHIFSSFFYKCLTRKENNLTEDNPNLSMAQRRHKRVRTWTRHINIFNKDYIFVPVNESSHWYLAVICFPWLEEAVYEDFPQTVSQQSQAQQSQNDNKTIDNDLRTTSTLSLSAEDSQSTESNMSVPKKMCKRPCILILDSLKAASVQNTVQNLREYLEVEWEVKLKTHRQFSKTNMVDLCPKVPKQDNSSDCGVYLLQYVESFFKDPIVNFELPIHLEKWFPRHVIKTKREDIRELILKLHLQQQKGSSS
The test can be described thus: SENP7 protease inhibitors, SAR follow-up, biochemical, luminescence (AID 504497). Type of test: functional.

Test [7] addresses T4, Sentrin-specific protease 6 (Homo sapiens, UniProt Q9GZR1).
T4 sequence (Q9GZR1 whole entry): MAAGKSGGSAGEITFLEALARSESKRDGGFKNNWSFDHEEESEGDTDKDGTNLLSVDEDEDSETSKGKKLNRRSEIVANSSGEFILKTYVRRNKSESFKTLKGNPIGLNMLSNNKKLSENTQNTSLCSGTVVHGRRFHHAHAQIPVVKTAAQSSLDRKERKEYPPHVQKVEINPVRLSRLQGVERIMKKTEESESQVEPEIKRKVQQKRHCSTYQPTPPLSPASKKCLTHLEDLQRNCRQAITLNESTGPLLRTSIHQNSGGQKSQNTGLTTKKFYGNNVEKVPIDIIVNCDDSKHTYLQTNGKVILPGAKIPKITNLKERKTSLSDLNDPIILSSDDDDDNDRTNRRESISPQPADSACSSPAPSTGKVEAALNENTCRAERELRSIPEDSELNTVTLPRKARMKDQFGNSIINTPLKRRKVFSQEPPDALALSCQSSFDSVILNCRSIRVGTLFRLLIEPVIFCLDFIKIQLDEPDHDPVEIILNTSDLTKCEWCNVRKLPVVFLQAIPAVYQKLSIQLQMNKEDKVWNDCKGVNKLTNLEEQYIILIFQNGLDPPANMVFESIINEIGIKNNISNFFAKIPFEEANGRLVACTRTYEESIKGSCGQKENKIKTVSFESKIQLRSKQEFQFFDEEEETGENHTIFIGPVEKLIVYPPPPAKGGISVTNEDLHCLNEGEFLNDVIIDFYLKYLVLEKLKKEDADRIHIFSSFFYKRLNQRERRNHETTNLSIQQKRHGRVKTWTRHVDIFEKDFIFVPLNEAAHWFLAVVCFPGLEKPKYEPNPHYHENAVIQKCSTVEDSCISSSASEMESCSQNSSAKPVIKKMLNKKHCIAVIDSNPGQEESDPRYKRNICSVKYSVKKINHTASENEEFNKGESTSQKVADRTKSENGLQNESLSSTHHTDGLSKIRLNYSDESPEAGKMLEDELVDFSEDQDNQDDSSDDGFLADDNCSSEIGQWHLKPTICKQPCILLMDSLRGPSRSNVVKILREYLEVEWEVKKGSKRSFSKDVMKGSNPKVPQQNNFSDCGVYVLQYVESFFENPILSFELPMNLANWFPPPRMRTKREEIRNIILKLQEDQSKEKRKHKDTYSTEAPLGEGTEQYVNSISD
The test can be described thus: SAR Analysis of small molecule inhibitors of Sentrin-specific protease 6 (SENP6) using a Luminescent assay. [Related pubchem assays (depositor defined):AID2582, AID2599]. Type of test: functional.

Test [8] concerns the target T5, Caspase-3 (Homo sapiens, UniProt P42574).
T5 sequence (P42574 whole entry): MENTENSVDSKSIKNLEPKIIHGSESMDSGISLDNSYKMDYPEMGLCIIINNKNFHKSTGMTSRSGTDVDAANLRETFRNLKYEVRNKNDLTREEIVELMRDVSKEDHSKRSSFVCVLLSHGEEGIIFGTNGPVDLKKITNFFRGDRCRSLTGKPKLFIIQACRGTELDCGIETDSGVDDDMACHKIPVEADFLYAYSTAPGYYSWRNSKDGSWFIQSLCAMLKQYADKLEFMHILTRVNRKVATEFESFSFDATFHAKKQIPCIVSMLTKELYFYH
The test can be described thus: SAR Analysis of small molecule inhibitors of Sentrin-specific proteases (SENPs) using a Caspase-3 Selectivity assay. [Related pubchem assays (depositor defined):AID2540, AID2599, AID434973, AID489001]. Type of test: functional.

Test [9] has as its target Nonstructural protein 1 (Influenza A virus, UniProt Q194T2). Type of test: functional, Influenza A virus (A/California/07/2009(H1N1)).
Test [10] has as its target Melanocortin receptor 4 (Homo sapiens, UniProt P32245). In kind it is functional, cell-based.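 Further: Cell-based assay with luminescence read-out, confirmatory dose-response testing for agonist activity of biased ligands at MC4R; human U2OS cells with tagged receptor and beta-arrestin; potency of agonists that increase receptor coupling to beta-arrestin.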
In test [11] the target is T6, Microphthalmia-associated transcription factor (Homo sapiens, UniProt O75030).
T6 sequence (O75030 whole entry): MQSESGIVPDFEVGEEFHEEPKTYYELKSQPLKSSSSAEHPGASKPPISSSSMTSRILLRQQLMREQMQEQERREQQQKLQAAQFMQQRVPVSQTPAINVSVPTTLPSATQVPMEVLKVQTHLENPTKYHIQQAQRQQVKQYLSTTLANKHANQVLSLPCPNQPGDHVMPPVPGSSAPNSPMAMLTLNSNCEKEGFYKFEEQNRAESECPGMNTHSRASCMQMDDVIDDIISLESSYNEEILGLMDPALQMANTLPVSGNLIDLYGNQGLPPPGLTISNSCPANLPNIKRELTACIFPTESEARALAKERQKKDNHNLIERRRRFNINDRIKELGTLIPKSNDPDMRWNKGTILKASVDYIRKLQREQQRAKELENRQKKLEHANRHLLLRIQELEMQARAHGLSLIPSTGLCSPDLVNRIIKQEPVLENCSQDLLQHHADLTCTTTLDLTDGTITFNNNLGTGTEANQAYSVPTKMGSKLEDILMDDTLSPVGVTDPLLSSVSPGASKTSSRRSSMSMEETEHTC
The test can be described thus: TRPM1 promoter luciferase signal decrease, dose response, MITF inhibitor project, cell-based, SK-MEL-5, cherry-picked, set 3 (AID 493073).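 Further: SK-MEL-5 melanoma cells with luciferase driven by the MITF target TRPM1 promoter.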 In kind it is functional.

The source of these data is ChEMBL document CHEMBL1201862, “PubChem BioAssay data set” (2004).

Molecules are shown by their SMILES. The source made the active and inactive calls.

Sequence of Melanocortin receptor 4 (P32245 whole entry): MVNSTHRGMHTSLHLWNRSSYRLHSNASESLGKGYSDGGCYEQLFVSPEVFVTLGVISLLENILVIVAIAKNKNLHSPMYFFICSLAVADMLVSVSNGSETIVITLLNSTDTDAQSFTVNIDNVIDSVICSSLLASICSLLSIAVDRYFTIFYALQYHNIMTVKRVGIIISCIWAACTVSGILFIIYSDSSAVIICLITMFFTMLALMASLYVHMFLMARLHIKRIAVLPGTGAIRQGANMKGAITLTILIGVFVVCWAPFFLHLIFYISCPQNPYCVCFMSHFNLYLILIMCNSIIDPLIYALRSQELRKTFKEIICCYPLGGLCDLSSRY
Sequence of Nonstructural protein 1 (Q194T2 whole entry): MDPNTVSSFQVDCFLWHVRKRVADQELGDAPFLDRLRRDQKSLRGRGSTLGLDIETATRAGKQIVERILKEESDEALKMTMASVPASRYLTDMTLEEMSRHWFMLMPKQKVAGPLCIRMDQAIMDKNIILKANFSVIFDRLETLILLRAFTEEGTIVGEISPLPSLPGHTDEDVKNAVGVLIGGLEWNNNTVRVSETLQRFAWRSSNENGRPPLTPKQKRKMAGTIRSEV

As for `Nc1nc(-c2ccccc2)cn1/N=C/c1ccccc1`, the values for the IC50 in test [1] and in [2] were > 29.9 µM (inactive) and 8.47 µM (active), respectively. The EC50 (as a rule, the concentration giving half of the maximal effect) in test [3] is > 29.9 µM (inactive); in test [4], 1.49 µM (active).

On to `COc1ccc(N/N=C/c2cn(Cc3ccccc3)c3ccccc23)cc1`, for which the IC50 in test [5], in test [6], in test [7] and in [8] was > 99 µM (inactive) each time.

Turning to `O=C1C(=C(c2ccccc2)c2ccccc2)Nc2ccccc21`, in [9], the concentration for half-maximal inhibition (IC50) (as a rule, the concentration that inhibits the measured activity by half) was 30.3 µM (active).

For `Cc1ccccc1-c1nc(-c2ccc(NC(=O)c3ccc(Br)o3)cc2)no1`, the EC50 in test [10] was > 89.2 µM (inactive).

In the case of `Cc1ccc(S(=O)(=O)Nc2ccc3sc(NC(=O)c4ccccc4)nc3c2)cc1`, the IC50 in test [5], in test [6], in [7] and in [8] was > 99 µM (inactive) throughout.

Consider `O=C(COC(=O)Cc1ccccc1F)NCCc1ccccc1`, for which the results for the IC50 in test [1] and in test [2] were > 29.9 µM (inactive) and 2.35 µM (active), respectively. Further, the results for the EC50 in [3] and in test [4] were > 29.9 µM (inactive) and > 9.96 µM (active), respectively.

`NNc1nc(Nc2ccccc2)nc(N2CCCCC2)n1`: the IC50 is > 29.9 µM (inactive) in test [1] and 8.76 µM (active) in test [2]. The EC50 in test [3] is > 29.9 µM (inactive); in test [4], 3.48 µM (active).

In the case of `CS(=O)(=O)c1ccc2nc(NC(=O)c3cccc(NS(=O)(=O)c4ccccc4)c3)sc2c1`, the IC50 in test [5], in test [6], in test [7] and in test [8] was > 99 µM (inactive) throughout.

`CCOC(=O)c1c(-c2ccc(Br)cc2)csc1NC(=O)C1CC1`: the IC50 in test [5], in test [6], in test [7] and in [8] was > 99 µM (inactive) throughout.

For the compound `COc1ccc(CNC(=O)Nc2nc(C(N)Cc3ccc(C(F)(F)F)cc3)cs2)cc1` (centres undefined), the EC50 in [10] is > 89.2 µM (inactive).

As for `CCC1CCCCN1c1nc(-c2cccc(OC)c2O)nc2ccccc12` (centres undefined), in test [9], the IC50 was > 100 µM (active).

For the compound `CCOC(=O)N[C@H](C(=O)N1CCC[C@H]1C(=O)NCCc1ccccc1Cl)c1ccccc1`, the IC50 in test [1] is > 29.9 µM (inactive); in test [2], 6.89 µM (active). In addition, the values for the EC50 in test [3] and in test [4] were > 29.9 µM (inactive) and 2.06 µM (active), respectively.

Take `C/C(=N\NC(=O)COc1cccc2ccccc12)c1cccs1`: the EC50 in [10] was > 89.2 µM (inactive).

In the case of `O=[N+]([O-])c1ccc(/C=N/N=C/c2ccc([N+](=O)[O-])o2)o1`, in [11], the concentration at half-maximal activity (AC50) (as a rule, the midpoint of the concentration-response curve, whichever way the signal moves) is 9.36 µM (active).

`COc1ccc(-c2cc(NC=O)c3ncc(-c4cccc(C(F)(F)F)c4)n3c2)cc1OC`: in test [10], the EC50 is 12.4 µM (inactive).
